# From US20080242713A1, “Novel 5-cyano-prostacyclin derivatives as agents for the treatment of autoimmune diseases” (priority 2007, published 2008)
# How the values were obtained:
# [1] = biological target: T1, EP4 receptor (Homo sapiens, UniProt P35408); assay: cAMP accumulation assay in cells expressing EP4 (Biological Example 1, diol derivative); assay type: cell-based; conditions: for RLU - background: cAMP luminescence, mean of triplicate
# Description: (§1) Commercial cAMP accumulation assays are typically competitive immunoassays in which free cAMP from cell lysates competes for antibody binding against a “labeled” cAMP molecule. This positive signal is generated in direct proportion to the amount of free cAMP. In our assays cAMP standards and samples are pipetted into the wells of a microplate. An antibody specific cAMP is added to the wells. A substrate is added to the wells and luminescence develops in proportion to the amount of cAMP which accumulated during treatment of cells which express the EP4 receptor with standards and samples. The intensity of the luminescence is measured in a luminometer.
# The response of the EP4 expressing cells treated with the diol derivative is compared to Nileprost. Results shown are the mean of triplicate determinations.
# [2] = biological target: T1, EP4 receptor; assay: cAMP accumulation assay in cells expressing EP4 (Biological Example 2, tetrazole derivatives); assay type: cell-based; conditions: cAMP luminescence, mean of triplicate
# Description: as §1
# Results shown are the mean of triplicate determinations.
# T1 sequence (P35408 whole entry): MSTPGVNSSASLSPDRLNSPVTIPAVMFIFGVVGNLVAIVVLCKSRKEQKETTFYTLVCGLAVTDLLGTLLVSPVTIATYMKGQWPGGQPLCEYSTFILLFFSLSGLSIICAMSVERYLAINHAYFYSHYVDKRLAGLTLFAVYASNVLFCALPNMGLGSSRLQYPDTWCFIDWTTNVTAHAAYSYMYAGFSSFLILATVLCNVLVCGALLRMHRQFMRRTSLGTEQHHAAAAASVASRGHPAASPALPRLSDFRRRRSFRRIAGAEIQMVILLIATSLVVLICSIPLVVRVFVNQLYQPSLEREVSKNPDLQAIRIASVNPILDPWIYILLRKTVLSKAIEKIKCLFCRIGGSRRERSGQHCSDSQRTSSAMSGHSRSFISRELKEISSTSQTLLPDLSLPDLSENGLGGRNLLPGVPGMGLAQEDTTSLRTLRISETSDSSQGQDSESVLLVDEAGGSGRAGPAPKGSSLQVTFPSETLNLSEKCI
SMILES,RLU - background ([1]; compound 0.010 nM) [RLU],RLU - background ([1]; compound 0.152 nM) [RLU],RLU - background ([1]; compound 0.457 nM) [RLU],RLU - background ([1]; compound 1.372 nM) [RLU],RLU - background ([1]; compound 4.115 nM) [RLU],RLU - background ([1]; compound 12.346 nM) [RLU],RLU - background ([1]; compound 37.037 nM) [RLU],RLU - background ([1]; compound 111.111 nM) [RLU],RLU - background ([2]; compound 0.005 nM) [RLU],RLU - background ([2]; compound 0.052 nM) [RLU],RLU - background ([2]; compound 0.157 nM) [RLU],RLU - background ([2]; compound 0.472 nM) [RLU],RLU - background ([2]; compound 1.417 nM) [RLU],RLU - background ([2]; compound 4.252 nM) [RLU],RLU - background ([2]; compound 12.757 nM) [RLU],RLU - background ([2]; compound 38.272 nM) [RLU],RLU - background ([2]; compound 114.815 nM) [RLU],RLU - background ([2]; compound 344.444 nM) [RLU],RLU - background ([2]; compound 1033.333 nM) [RLU],RLU - background ([2]; compound 3100.000 nM) [RLU],other results
"CCCCC(C)[C@H](O)/C=C/[C@@H]1[C@H]2C/C(=C(\C#N)CCCC(O)CO)O[C@H]2C[C@H]1O (stereo partly drawn) [Cpd. #5, 2-[(3aR,4R,5R,6aS)-hexahydro-5-hydroxy-4-[(1E,3S)-3-hydroxy-4-methyl-1-octenyl]-2H-cyclopenta[b]furan-2-ylidene]-6,7-dihydroxy-, (2E)-heptanenitrile]",0,0,0,152432,532234,912060,1019082,1150386,,,,,,,,,,,,,RLU - background ([1]; compound 333.333 nM): 1291820 RLU; RLU - background ([1]; compound 1000.000 nM): 1260692 RLU; RLU - background ([1]; compound 3000.000 nM): 1201852 RLU; RLU - background ([1]; compound 9000.000 nM): 1206470 RLU; EP4 agonist activity in the cAMP accumulation assay ([1]; result in words): dose-responsively showed EP4 agonist activity
"CCCCC(C)C(O)C=CC1C(O)CC2OC(=C(C#N)CCCC(=O)O)CC21 (stereo not shown) [Nileprost, 5-cyano-16-methylprostacyclin, reference compound]",0,850786,1291900,1521826,1626762,1589698,1312998,1258626,,,,,,,,,,,,,RLU - background ([1]; compound 333.333 nM): 1648306 RLU; RLU - background ([1]; compound 1000.000 nM): 1635488 RLU; RLU - background ([1]; compound 3000.000 nM): 1625442 RLU; RLU - background ([1]; compound 9000.000 nM): 1599712 RLU
"CCCCC(C)[C@H](O)/C=C/[C@@H]1[C@H]2C/C(=C(\C#N)CCCc3nnn[nH]3)O[C@H]2C[C@H]1O (stereo partly drawn) [Cpd. #1, α-[(3aR,4R,5R,6aS)-hexahydro-5-hydroxy-4-[(1E,3S)-3-hydroxy-4-methyl-1-octenyl]-2H-cyclopenta[b]furan-2-ylidene]-1H-tetrazole-5-2E-pentanenitrile]",,,,,,,,,53600.00,17642.67,22533.33,27365.33,157357.33,373856.00,435810.67,484954.67,514858.67,606992.00,584826.67,559813.33,
"CCCCC[C@H](O)/C=C/[C@@H]1[C@H]2CC(=C(C#N)CCCc3nnn[nH]3)O[C@H]2C[C@H]1O [Cpd. #4, α-[(3aR,4R,5R,6aS)-hexahydro-5-hydroxy-4-[(1E,3S)-3-hydroxy-1-octenyl]-2H-cyclopenta[b]furan-2-ylidene]-1H-tetrazole-5-pentanenitrile]",,,,,,,,,146597.33,83650.67,40557.33,46426.67,82445.33,158224.00,429672.00,554328.00,813194.67,909808.00,808477.33,820866.67,
"CCCCC(C)[C@@H](O)/C=C/[C@@H]1[C@H]2C/C(=C(/C#N)CCCc3nnn[nH]3)O[C@H]2C[C@H]1O (stereo partly drawn) [Cpd. #3, α-[(3a R,4R,5R,6aS)-hexahydro-5-hydroxy-4-[(1E,3R)-3-hydroxy-4-methyl-1-octenyl]-2H-cyclopenta[b]furan-2-ylidene]-1H-tetrazole-5-2Z-pentanenitrile]",,,,,,,,,76373.33,79997.33,83616.00,118397.33,273778.67,374920.00,522154.67,697208.00,773429.33,813525.33,710053.33,714320.00,
